From PubChem BioAssay (NCI)
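Cells were grown in 96-well plates and exposed to each compound for 48 hours at five concentrations; endpoints were interpolated linearly between bracketing concentrations, or set to the highest concentration if not reached. Here, GI50 denotes the concentration required for 50% inhibition of growth. TGI denotes the concentration required for complete inhibition of growth.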

Columns and labels:
Test in all cases: DTP human tumour cell line panel, 48 h
SR leukemia = test system: SR leukemia
NCI-H460 lung = test system: NCI-H460 lung
SF-539 CNS = test system: SF-539 CNS
NCI-H23 lung = test system: NCI-H23 lung
M14 melanoma = test system: M14 melanoma
SN12C renal = test system: SN12C renal
OVCAR-5 ovarian = test system: OVCAR-5 ovarian
CAKI-1 renal = test system: CAKI-1 renal
UACC-62 melanoma = test system: UACC-62 melanoma
A549 NSCLC = test system: A549 NSCLC
TK-10 renal = test system: TK-10 renal
A498 renal = test system: A498 renal
T-47D breast = test system: T-47D breast
SF-268 CNS = test system: SF-268 CNS
UO-31 renal = test system: UO-31 renal
UACC-257 melanoma = test system: UACC-257 melanoma
NCI-H226 lung = test system: NCI-H226 lung
HL-60(TB) leukemia = test system: HL-60(TB) leukemia
DU-145 prostate = test system: DU-145 prostate
ACHN renal = test system: ACHN renal
SF-295 CNS = test system: SF-295 CNS
K-562 leukemia = test system: K-562 leukemia
PC-3 prostate = test system: PC-3 prostate
HCT-15 colon = test system: HCT-15 colon
786-0 renal = test system: 786-0 renal
BT-549 breast = test system: BT-549 breast
CCRF-CEM leukemia = test system: CCRF-CEM leukemia
RPMI-8226 leukemia = test system: RPMI-8226 leukemia
HCT-116 colon = test system: HCT-116 colon
SK-MEL-28 melanoma = test system: SK-MEL-28 melanoma
MOLT-4 leukemia = test system: MOLT-4 leukemia
MALME-3M melanoma = test system: MALME-3M melanoma
MDA-MB-468 breast = test system: MDA-MB-468 breast
COLO 205 colon = test system: COLO 205 colon
NCI/ADR-RES ovarian = test system: NCI/ADR-RES ovarian
MDA-MB-435 = test system: MDA-MB-435
HCC-2998 colon = test system: HCC-2998 colon
IGROV1 ovarian = test system: IGROV1 ovarian
OVCAR-3 ovarian = test system: OVCAR-3 ovarian
SNB-19 CNS = test system: SNB-19 CNS
NCI-H522 lung = test system: NCI-H522 lung
OVCAR-4 ovarian = test system: OVCAR-4 ovarian
KM12 colon = test system: KM12 colon
HOP-92 NSCLC = test system: HOP-92 NSCLC
OVCAR-8 ovarian = test system: OVCAR-8 ovarian
EKVX NSCLC = test system: EKVX NSCLC
HT29 colon = test system: HT29 colon
SK-OV-3 ovarian = test system: SK-OV-3 ovarian
RXF 393 renal = test system: RXF 393 renal
HOP-62 NSCLC = test system: HOP-62 NSCLC
SK-MEL-5 melanoma = test system: SK-MEL-5 melanoma
MCF7 breast = test system: MCF7 breast
SK-MEL-2 melanoma = test system: SK-MEL-2 melanoma
U251 CNS = test system: U251 CNS
SNB-75 CNS = test system: SNB-75 CNS

In the case of COc1ccc2[nH]c(=O)c(CSc3nccc(-c4ccc(OC)c(OC)c4)n3)cc2c1, the GI50 (SR leukemia) is reported as 15.9 µM, the TGI (SR leukemia) is reported as > 100 µM and the GI50 (NCI-H460 lung) is reported as 17.4 µM. The TGI (NCI-H460 lung) was 40.3 µM, the GI50 (SF-539 CNS) was 12.3 µM and the TGI (SF-539 CNS) was 25.7 µM. The GI50 (NCI-H23 lung) was 17.6 µM, the TGI (NCI-H23 lung) was 45.4 µM and the GI50 (M14 melanoma) was 25.5 µM. It also gave a TGI (M14 melanoma) of 74.4 µM, a GI50 (SN12C renal) of 11.2 µM and a TGI (SN12C renal) of 42.7 µM. For the same compound, the GI50 (OVCAR-5 ovarian) was 19.1 µM, the TGI (OVCAR-5 ovarian) was 53.5 µM and the GI50 (CAKI-1 renal) was 11 µM. For the same compound, the TGI (CAKI-1 renal) was 32.8 µM, the GI50 (UACC-62 melanoma) was 15 µM and the TGI (UACC-62 melanoma) was 35.3 µM. For the same compound, the GI50 (A549 NSCLC) was 20.9 µM, the TGI (A549 NSCLC) was 91.5 µM and the GI50 (TK-10 renal) was 13.3 µM. It also gave a TGI (TK-10 renal) of 33.7 µM, a GI50 (A498 renal) of 14.7 µM and a TGI (A498 renal) of 37.5 µM. It also gave a GI50 (T-47D breast) of 10.9 µM, a TGI (T-47D breast) of 67.4 µM and a GI50 (SF-268 CNS) of 14.7 µM. The TGI (SF-268 CNS) was 47.8 µM, the GI50 (UO-31 renal) was 10.4 µM and the TGI (UO-31 renal) was 23.7 µM. The GI50 (UACC-257 melanoma) was 28.9 µM, the TGI (UACC-257 melanoma) was 99.9 µM and the GI50 (NCI-H226 lung) was 12.7 µM. The TGI (NCI-H226 lung) was 40.8 µM, the GI50 (HL-60(TB) leukemia) was 35.2 µM and the TGI (HL-60(TB) leukemia) was > 100 µM. It also gave a GI50 (DU-145 prostate) of 14.3 µM, a TGI (DU-145 prostate) of 32.4 µM and a GI50 (ACHN renal) of 12.1 µM. The TGI (ACHN renal) was 24.4 µM, the GI50 (SF-295 CNS) was 17.2 µM and the TGI (SF-295 CNS) was 43 µM. For the same compound, the GI50 (K-562 leukemia) was 7.33 µM, the TGI (K-562 leukemia) was 29.6 µM and the GI50 (PC-3 prostate) was 11.9 µM. The TGI (PC-3 prostate) was 25.7 µM, the GI50 (HCT-15 colon) was 15.4 µM and the TGI (HCT-15 colon) was 46.9 µM. The GI50 (786-0 renal) was 15.4 µM, the TGI (786-0 renal) was 33.8 µM and the GI50 (BT-549 breast) was 12.5 µM. The TGI (BT-549 breast) was 37.1 µM, the GI50 (CCRF-CEM leukemia) was 10.5 µM and the TGI (CCRF-CEM leukemia) was > 100 µM. For the same compound, the GI50 (RPMI-8226 leukemia) was 6.26 µM, the TGI (RPMI-8226 leukemia) was 88 µM and the GI50 (HCT-116 colon) was 15.7 µM. It also gave a TGI (HCT-116 colon) of 49.2 µM, a GI50 (SK-MEL-28 melanoma) of 20.3 µM and a TGI (SK-MEL-28 melanoma) of 41.5 µM. It also gave a GI50 (MOLT-4 leukemia) of 9.07 µM, a TGI (MOLT-4 leukemia) of 42.9 µM and a GI50 (MALME-3M melanoma) of 19.5 µM. It also gave a TGI (MALME-3M melanoma) of 40 µM, a GI50 (MDA-MB-468 breast) of 5.84 µM and a TGI (MDA-MB-468 breast) of 32.2 µM. For the same compound, the GI50 (COLO 205 colon) was 32.1 µM, the TGI (COLO 205 colon) was > 100 µM and the GI50 (NCI/ADR-RES ovarian) was 14.2 µM. It also gave a TGI (NCI/ADR-RES ovarian) of 41.2 µM, a GI50 (MDA-MB-435) of 23.7 µM and a TGI (MDA-MB-435) of 73.8 µM. It also gave a GI50 (HCC-2998 colon) of 18.1 µM, a TGI (HCC-2998 colon) of 57.6 µM and a GI50 (IGROV1 ovarian) of 17.7 µM. The TGI (IGROV1 ovarian) was 41.6 µM, the GI50 (OVCAR-3 ovarian) was 15.2 µM and the TGI (OVCAR-3 ovarian) was 37.3 µM. It also gave a GI50 (SNB-19 CNS) of 14.5 µM, a TGI (SNB-19 CNS) of 36 µM and a GI50 (NCI-H522 lung) of 16.4 µM. It also gave a TGI (NCI-H522 lung) of 37.3 µM, a GI50 (OVCAR-4 ovarian) of 16.5 µM and a TGI (OVCAR-4 ovarian) of 78.2 µM. The GI50 (KM12 colon) was 21.8 µM, the TGI (KM12 colon) was 62.1 µM and the GI50 (HOP-92 NSCLC) was 2010 nM. For the same compound, the TGI (HOP-92 NSCLC) was 8.63 µM, the GI50 (OVCAR-8 ovarian) was 21 µM and the TGI (OVCAR-8 ovarian) was > 100 µM. For the same compound, the GI50 (EKVX NSCLC) was 12.9 µM, the TGI (EKVX NSCLC) was 44 µM and the GI50 (HT29 colon) was 17.7 µM. For the same compound, the TGI (HT29 colon) was 38.5 µM, the GI50 (SK-OV-3 ovarian) was 25.5 µM and the TGI (SK-OV-3 ovarian) was 60.7 µM. For the same compound, the GI50 (RXF 393 renal) was 6.08 µM, the TGI (RXF 393 renal) was 40.1 µM and the GI50 (HOP-62 NSCLC) was 18.4 µM. For the same compound, the TGI (HOP-62 NSCLC) was 51.3 µM, the GI50 (SK-MEL-5 melanoma) was 9.51 µM and the TGI (SK-MEL-5 melanoma) was 37.4 µM. The GI50 (MCF7 breast) was 18.7 µM, the TGI (MCF7 breast) was 43 µM and the GI50 (SK-MEL-2 melanoma) was 15.1 µM. For the same compound, the TGI (SK-MEL-2 melanoma) was 51.3 µM, the GI50 (U251 CNS) was 22.4 µM and the TGI (U251 CNS) was > 100 µM. The GI50 (SNB-75 CNS) was 3.43 µM and the TGI (SNB-75 CNS) was 25.9 µM.
